Assays:
Test in all cases: NCI60 antitumor screening
Type in all cases: cell-based, human
ACHN = system: ACHN
MALME-3M = system: MALME-3M
MDA-MB-468 = system: MDA-MB-468
SK-MEL-28 = system: SK-MEL-28
NCI-H522 = system: NCI-H522
HCT-116 = system: HCT-116
NCI-H322M = system: NCI-H322M
SF-539 = details: for GI%: 10 μM one-dose
MCF7 = system: MCF7
UACC-257 = system: UACC-257
SN12C = system: SN12C
SK-MEL-5 = system: SK-MEL-5
SF-268 = system: SF-268
SK-MEL-2 = system: SK-MEL-2
NCI-H460 = system: NCI-H460
MOLT-4 = system: MOLT-4
CCRF-CEM = system: CCRF-CEM
SK-OV-3 = system: SK-OV-3
SNB-19 = system: SNB-19
HCC-2998 = system: HCC-2998
HOP-62 = details: for GI%: 10 μM one-dose
HS 578T = details: for GI%: 10 μM one-dose
DU-145 = system: DU-145
RPMI-8226 = system: RPMI-8226
NCI-H23 = system: NCI-H23
OVCAR-4 = details: for GI%: 10 μM one-dose
OVCAR-8 = system: OVCAR-8
HOP-92 = system: HOP-92
NCI/ADR-RES = system: NCI/ADR-RES
PC-3 = system: PC-3
COLO 205 = system: COLO 205
UO-31 = system: UO-31
SNB-75 = system: SNB-75
786–0 = details: for GI%: 10 μM one-dose
K-562 = details: for GI%: 10 μM one-dose

Cc1ccc(CSc2nc(-c3ccc(F)cc3)c(C#N)c(N3CCOCC3)n2)cc1 [4d, 4-(4-Fluorophenyl)-2-((4-methylbenzyl)thio)-6-morpholinopyrimidine-5-carbonitrile]
GI% (ACHN; 10 μM one-dose): 37.30% | GI% (MALME-3M; 10 μM one-dose): 26.17% | GI% (MDA-MB-468; 10 μM one-dose): — (GI% < 10) | GI% (SK-MEL-28; 10 μM one-dose): — (GI% < 10) | GI% (NCI-H522; 10 μM one-dose): 44.57% | GI% (HCT-116; 10 μM one-dose): 19.81% | GI% (NCI-H322M; 10 μM one-dose): — (GI% < 10) | GI% (SF-539): 32.27% | GI% (SF-539; Table 1): — (GI value > 70%) | GI% (MCF7; 10 μM one-dose): 11.76% | GI% (UACC-257; 10 μM one-dose): 17.42% | GI% (SN12C; 10 μM one-dose): — (GI% < 10) | GI% (SK-MEL-5; 10 μM one-dose): 10.99% | GI% (SF-268; 10 μM one-dose): 22.32% | GI% (SK-MEL-2; 10 μM one-dose): — (GI% < 10) | GI% (NCI-H460; 10 μM one-dose): — (GI% < 10) | GI% (MOLT-4; 10 μM one-dose): — (GI% < 10) | GI% (CCRF-CEM; 10 μM one-dose): — (GI% < 10) | GI% (SK-OV-3; 10 μM one-dose): 11.69% | GI% (SNB-19; 10 μM one-dose): 44.48% | GI% (HCC-2998; 10 μM one-dose): — (GI% < 10) | GI% (HOP-62): 36.77% | GI% (HOP-62; Table 1): — (GI value > 70%) | GI% (HS 578T): 48.85% | GI% (HS 578T; Table 1): — (GI value > 70%) | GI% (DU-145; 10 μM one-dose): — (GI% < 10) | GI% (RPMI-8226; 10 μM one-dose): — (GI% < 10) | GI% (NCI-H23; 10 μM one-dose): — (GI% < 10) | GI% (OVCAR-4): 20.15% | GI% (OVCAR-4; Table 1): — (GI value > 70%) | GI% (OVCAR-8; 10 μM one-dose): 23.86% | GI% (HOP-92; 10 μM one-dose): 34.62% | GI% (NCI/ADR-RES; 10 μM one-dose): — (GI% < 10) | GI% (PC-3; 10 μM one-dose): — (GI% < 10) | GI% (COLO 205; 10 μM one-dose): — (GI% < 10) | GI% (UO-31; 10 μM one-dose): 10.06% | GI% (SNB-75; 10 μM one-dose, Table 1): 88.04% | GI% (786–0): 55.92% | GI% (786–0; Table 1): — (GI value > 70%) | GI% (K-562): 10.67% | GI% (K-562; Table 1): — (GI value > 70%)

Cc1ccc(CSc2nc(-c3ccc(F)cc3)c(C#N)c(N3CCNCC3)n2)cc1 [4h, 4-(4-Fluorophenyl)-2-((4-methylbenzyl)thio)-6-(piperazin-1-yl)pyrimidine-5-carbonitrile]
inhibition at 10 µM (ACHN; Homo sapiens, 10 μM single dose, ACHN (renal cancer), read-out: growth inhibition percent (GI%)): < 10% | inhibition at 10 µM (MALME-3M; Homo sapiens, 10 μM single dose, MALME-3M (melanoma), read-out: growth inhibition percent (GI%)): < 10% | inhibition at 10 µM (MDA-MB-468; Homo sapiens, 10 μM single dose, MDA-MB-468 (breast cancer), read-out: growth inhibition percent (GI%)): < 10% | inhibition at 10 µM (SK-MEL-28; Homo sapiens, 10 μM single dose, SK-MEL-28 (melanoma), read-out: growth inhibition percent (GI%)): < 10% | inhibition at 10 µM (NCI-H522; Homo sapiens, 10 μM single dose, NCI-H522 (non-small cell lung cancer), read-out: growth inhibition percent (GI%)): < 10% | inhibition at 10 µM (HCT-116; Homo sapiens, 10 μM single dose, HCT-116 (colon cancer), read-out: growth inhibition percent (GI%)): < 10% | inhibition at 10 µM (NCI-H322M; Homo sapiens, 10 μM single dose, NCI-H322M (non-small cell lung cancer), read-out: growth inhibition percent (GI%)): < 10% | inhibition at 10 µM (SF-539; Homo sapiens, 10 μM single dose, SF-539 (CNS cancer), read-out: growth inhibition percent (GI%)): < 10% | inhibition at 10 µM (MCF7; Homo sapiens, 10 μM single dose, MCF7 (breast cancer), read-out: growth inhibition percent (GI%)): < 10% | inhibition at 10 µM (UACC-257; Homo sapiens, 10 μM single dose, UACC-257 (melanoma), read-out: growth inhibition percent (GI%)): < 10% | inhibition at 10 µM (SN12C; Homo sapiens, 10 μM single dose, SN12C (renal cancer), read-out: growth inhibition percent (GI%)): < 10% | inhibition at 10 µM (SK-MEL-5; Homo sapiens, 10 μM single dose, SK-MEL-5 (melanoma), read-out: growth inhibition percent (GI%)): < 10% | inhibition at 10 µM (SF-268; Homo sapiens, 10 μM single dose, SF-268 (CNS cancer), read-out: growth inhibition percent (GI%)): < 10% | inhibition at 10 µM (SK-MEL-2; Homo sapiens, 10 μM single dose, SK-MEL-2 (melanoma), read-out: growth inhibition percent (GI%)): < 10% | inhibition at 10 µM (NCI-H460; Homo sapiens, 10 μM single dose, NCI-H460 (non-small cell lung cancer), read-out: growth inhibition percent (GI%)): < 10% | inhibition at 10 µM (MOLT-4; Homo sapiens, 10 μM single dose, MOLT-4 (leukaemia), read-out: growth inhibition percent (GI%)): < 10% | inhibition at 10 µM (CCRF-CEM; Homo sapiens, 10 μM single dose, CCRF-CEM (leukaemia), read-out: growth inhibition percent (GI%)): < 10% | inhibition at 10 µM (SK-OV-3; Homo sapiens, 10 μM single dose, SK-OV-3 (ovarian cancer), read-out: growth inhibition percent (GI%)): < 10% | inhibition at 10 µM (SNB-19; Homo sapiens, 10 μM single dose, SNB-19 (CNS cancer), read-out: growth inhibition percent (GI%)): < 10% | inhibition at 10 µM (HCC-2998; Homo sapiens, 10 μM single dose, HCC-2998 (colon cancer), read-out: growth inhibition percent (GI%)): < 10% | inhibition at 10 µM (HOP-62; Homo sapiens, 10 μM single dose, HOP-62 (non-small cell lung cancer), read-out: growth inhibition percent (GI%)): < 10% | inhibition at 10 µM (HS 578T; Homo sapiens, 10 μM single dose, HS 578T (breast cancer), read-out: growth inhibition percent (GI%)): 10.1% | inhibition at 10 µM (DU-145; Homo sapiens, DU-145, read-out: growth inhibition percent (GI%)): < 10% | inhibition at 10 µM (RPMI-8226; Homo sapiens, 10 μM single dose, RPMI-8226 (leukaemia), read-out: growth inhibition percent (GI%)): < 10% | inhibition at 10 µM (NCI-H23; Homo sapiens, 10 μM single dose, NCI-H23 (non-small cell lung cancer), read-out: growth inhibition percent (GI%)): < 10% | inhibition at 10 µM (OVCAR-4; Homo sapiens, 10 μM single dose, OVCAR-4 (ovarian cancer), read-out: growth inhibition percent (GI%)): < 10% | inhibition at 10 µM (OVCAR-8; Homo sapiens, 10 μM single dose, OVCAR-8 (ovarian cancer), read-out: growth inhibition percent (GI%)): < 10% | inhibition at 10 µM (HOP-92; Homo sapiens, 10 μM single dose, HOP-92 (non-small cell lung cancer), read-out: growth inhibition percent (GI%)): < 10% | inhibition at 10 µM (NCI/ADR-RES; Homo sapiens, 10 μM single dose, NCI/ADR-RES (ovarian cancer), read-out: growth inhibition percent (GI%)): < 10% | inhibition at 10 µM (PC-3; Homo sapiens, 10 μM single dose, PC-3 (prostate cancer), read-out: growth inhibition percent (GI%)): < 10% | inhibition at 10 µM (COLO 205; Homo sapiens, 10 μM single dose, COLO 205 (colon cancer), read-out: growth inhibition percent (GI%)): < 10% | inhibition at 10 µM (UO-31; Homo sapiens, 10 μM single dose, UO-31 (renal cancer), read-out: growth inhibition percent (GI%)): 12.1% | inhibition at 10 µM (SNB-75; Homo sapiens, 10 μM single dose, SNB-75 (CNS cancer), read-out: growth inhibition percent (GI%)): 19.5% | inhibition at 10 µM (786–0; Homo sapiens, 10 μM single dose, 786–0 (renal cancer), read-out: growth inhibition percent (GI%)): < 10% | inhibition at 10 µM (K-562; Homo sapiens, 10 μM single dose, (leukaemia), read-out: growth inhibition percent (GI%)): < 10%
